Source: US9822147B2, “Methods of treating ophthalmic diseases using NPR-B agonists” (priority 2009, dated 2017)
Numbered stars: 1 amine (or outer) side, 2 acyl side, 3 side chain; on linkers, the order of the positions; unused ones are H or OH. Square brackets hold non-standard residues; d marks the D form. Peptide text beside a SMILES is read from it. * marks the point of attachment. X4 = NCCCN[C@@H]1C[C@@H](C(=O)[*:2])N([*:1])C1; X3 = NCCN[C@@H]1C[C@@H](C(=O)[*:2])N([*:1])C1; Pro(4R-NH2) = N[C@H]1CN[C@H](C(=O)O)C1; X2 = O=C([C@H]1CCCN([*:1])C1)[*:2]; X1 = CCCCCCCCN1CCC[C@H](C(=O)*)C1; dDap(Me2) = CN(C)C[C@@H](N)C(=O)O; NMeL = CN[C@@H](CC(C)C)C(=O)O; Octanoyl = CCCCCCCC(=O)*; Api = NC1(C(=O)O)CCNCC1

Target: T1, NPR-B (Homo sapiens, UniProt P20594)
T1 construct: a functional assay using endogenously NPR-B expressing GTM-3 cells; endogenous in cells; host or cells: GTM-3 (human glaucoma trabecular meshwork cells)
T1 sequence (P20594 23-1047): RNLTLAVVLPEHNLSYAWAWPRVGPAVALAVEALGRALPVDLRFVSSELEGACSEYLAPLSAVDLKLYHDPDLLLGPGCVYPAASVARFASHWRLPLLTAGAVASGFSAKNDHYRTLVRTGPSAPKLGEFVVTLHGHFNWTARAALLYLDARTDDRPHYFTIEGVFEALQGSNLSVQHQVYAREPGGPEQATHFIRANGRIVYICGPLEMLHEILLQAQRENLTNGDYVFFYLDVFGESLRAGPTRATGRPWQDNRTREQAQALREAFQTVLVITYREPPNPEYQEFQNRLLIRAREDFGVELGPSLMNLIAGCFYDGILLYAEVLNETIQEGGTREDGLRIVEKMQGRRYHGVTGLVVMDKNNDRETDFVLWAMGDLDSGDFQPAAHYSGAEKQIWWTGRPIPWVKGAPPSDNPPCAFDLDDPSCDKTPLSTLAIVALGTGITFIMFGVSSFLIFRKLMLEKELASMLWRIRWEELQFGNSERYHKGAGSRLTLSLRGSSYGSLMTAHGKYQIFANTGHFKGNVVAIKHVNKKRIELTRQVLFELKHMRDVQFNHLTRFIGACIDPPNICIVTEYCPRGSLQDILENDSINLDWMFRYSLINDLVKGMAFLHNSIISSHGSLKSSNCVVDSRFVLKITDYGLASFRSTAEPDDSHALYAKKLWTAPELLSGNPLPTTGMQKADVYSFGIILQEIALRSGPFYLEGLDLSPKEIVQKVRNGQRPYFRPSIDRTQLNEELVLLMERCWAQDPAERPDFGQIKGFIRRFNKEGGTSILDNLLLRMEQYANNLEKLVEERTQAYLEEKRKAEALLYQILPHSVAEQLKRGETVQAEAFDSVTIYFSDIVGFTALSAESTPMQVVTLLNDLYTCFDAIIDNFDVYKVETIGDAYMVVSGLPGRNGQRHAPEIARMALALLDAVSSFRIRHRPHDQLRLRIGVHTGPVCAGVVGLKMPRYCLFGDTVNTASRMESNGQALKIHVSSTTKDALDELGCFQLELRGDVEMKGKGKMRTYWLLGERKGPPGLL
Assay: NPR-B induced production of cyclic GMP in human glaucoma trabecular meshwork cells (GTM-3)
Type: cell-based
Conditions: group by EC50 and Emax (CNP = 100%); Table 4; read-out: Activity (group), NPR-B activation assayed with GTM-3 cells

Row | SMILES | EC50
1 | CCCCCCCC(=O)N[C@H](C)C(=O)N[C@@H](Cc1ccccc1)C(=O)N[C@H](CC(C)C)C(=O)N[C@@H](CC(C)C)C(=O)N1C[C@H](O)C[C@H]1C(=O)N(C)[C@@H](CC(C)C)C(=O)N[C@@H](CC(=O)O)C(=O)N[C@@H](CCCNC(=N)N)C(=O)NC1(C(N)=O)CCCCC1 [JAL-1358, Occ-ala-Phe-leu-Leu-Hyp-Nml-Asp-Arg-Egz-NH2] (HELM PEPTIDE1{[CCCCCCCC(=O)[*:2]].[dA].F.[dL].L.[Hyp].[meL].D.R.[O=C(C1(N[*:1])CCCCC1)[*:2]].[am]}$$$$V2.0) | < 1 µM
2 | CCCCCCCC(=O)N[C@H](C)C(=O)N[C@@H](Cc1ccccc1)C(=O)N[C@H](CC(C)C)C(=O)N[C@@H](CC(C)C)C(=O)N1C[C@H](O)C[C@H]1C(=O)N[C@@H](CN(C)C)C(=O)N[C@@H](CC(=O)O)C(=O)N[C@@H](CCCNC(=N)N)C(=O)N[C@H](C(N)=O)[C@@H](C)CC [JAL-1367, Occ-ala-Phe-leu-Leu-Hyp-Dap(Me2)-Asp-Arg-Ile-NH2] (HELM PEPTIDE1{[CCCCCCCC(=O)[*:2]].[dA].F.[dL].L.[Hyp].[CN(C)C[C@H](N[*:1])C(=O)[*:2]].D.R.I.[am]}$$$$V2.0) | < 1 µM
3 | CCCCCCCC(=O)N1CCC[C@H](C(=O)N[C@@H](Cc2ccccc2)C(=O)N[C@H](CC(C)C)C(=O)N[C@@H](CC(C)C)C(=O)N2C[C@H](NCCN)C[C@H]2C(=O)N(C)[C@@H](CC(C)C)C(=O)N[C@@H](CC(=O)O)C(=O)N[C@@H](CCCNC(=N)N)C(=O)N[C@H](C(N)=O)[C@@H](C)CC)C1 [JAL-1371, Occ-Sni-Phe-leu-Leu-Tap(Ae)-Nml-Asp-Arg-Ile-NH2] (Octanoyl-[X2]F[dL]L[X3][NMeL]DRI-NH2) | < 1 µM
4 | CCCCc1cnc(N2CCC[C@H](C(=O)N[C@@H](Cc3ccccc3)C(=O)N[C@H](CC(C)C)C(=O)N[C@@H](CC(C)C)C(=O)N3C[C@H](O)C[C@H]3C(=O)N(C)[C@@H](CC(C)C)C(=O)N[C@@H](CC(=O)O)C(=O)N[C@@H](CCCNC(=N)N)C(=O)N[C@H](C(N)=O)[C@@H](C)CC)C2)s1 [JAL-1382, Sbt-Sni-Phe-leu-Leu-Hyp-Nml-Asp-Arg-Ile-NH2] (HELM PEPTIDE1{[CCCCc1cnc(N2CCC[C@H](C(=O)[*:2])C2)s1].F.[dL].L.[Hyp].[meL].D.R.I.[am]}$$$$V2.0) | < 1 µM
5 | CCCCCCCC(=O)N1CCC[C@H](C(=O)N[C@@H](Cc2ccccc2)C(=O)N[C@H](CC(C)C)C(=O)N[C@@H](CC(C)C)C(=O)N2C[C@H](N)C[C@H]2C(=O)N(C)[C@@H](CC(C)C)C(=O)N[C@H](C(=O)N[C@@H](CCCNC(=N)N)C(=O)N[C@H](C(N)=O)[C@@H](C)CC)C(C)C)C1 [JAL-1401, Occ-Sni-Phe-leu-Leu-Tap-Nml-Val-Arg-Ile-NH2] (Octanoyl-[X2]F[dL]L[Pro(4R-NH2)][NMeL]VRI-NH2) | < 1 µM
6 | CCCCCCCC(=O)N1CCC[C@H](C(=O)N[C@@H](Cc2ccccc2)C(=O)N[C@H](CN(C)C)C(=O)N[C@@H](CC(C)C)C(=O)N2C[C@H](N)C[C@H]2C(=O)N(C)[C@@H](CC(C)C)C(=O)N[C@H](C(=O)N[C@@H](CCCNC(=N)N)C(=O)N[C@H](C(N)=O)[C@@H](C)CC)C(C)C)C1 [JAL-1403, Occ-Sni-Phe-dap(Me2)-Leu-Tap-Nml-Val-Arg-Ile-NH2] (Octanoyl-[X2]F[dDap(Me2)]L[Pro(4R-NH2)][NMeL]VRI-NH2) | < 1 µM
7 | CCCCCCCC(=O)N[C@H](C)C(=O)N[C@@H](Cc1ccccc1)C(=O)N[C@H](CC(C)C)C(=O)N[C@@H](CC(C)C)C(=O)N1C[C@H](O)C[C@H]1C(=O)N(C)[C@@H](CC(C)C)C(=O)N[C@@H](CC(=O)O)C(=O)N[C@@H](CCCNC(=N)N)C(=O)NC(C)(CC(C)C)C(N)=O (stereo partly drawn) [JAL-1414, Occ-ala-Phe-leu-Leu-Hyp-Nml-Asp-Arg-Aml-NH2] (HELM PEPTIDE1{[CCCCCCCC(=O)[*:2]].[dA].F.[dL].L.[Hyp].[meL].D.R.[CC(C)CC(C)(N[*:1])C(=O)[*:2]].[am]}$$$$V2.0) | < 1 µM
8 | CCCCCCCC(=O)N[C@H](C)C(=O)N[C@@H](Cc1ccccc1)C(=O)N[C@H](CC(C)C)C(=O)N[C@@H](CC(C)C)C(=O)N1C[C@H](O)C[C@H]1C(=O)N(C)[C@@H](CC(C)C)C(=O)N[C@@H](CC(=O)O)C(=O)N[C@@H](CCCNC(=N)N)C(=O)NC(CC)(CC)C(N)=O [JAL-1416, Occ-ala-Phe-leu-Leu-Hyp-Nml-Asp-Arg-Deg-NH2] (HELM PEPTIDE1{[CCCCCCCC(=O)[*:2]].[dA].F.[dL].L.[Hyp].[meL].D.R.[CCC(CC)(N[*:1])C(=O)[*:2]].[am]}$$$$V2.0) | < 1 µM
9 | CCCCCCCC(=O)N[C@H](C)C(=O)N[C@@H](Cc1ccccc1)C(=O)N[C@H](CC(C)C)C(=O)N[C@@H](CC(C)C)C(=O)N1C[C@H](O)C[C@H]1C(=O)N(C)[C@@H](CC(C)C)C(=O)N[C@@H](CC(=O)O)C(=O)N(C)[C@@H](CCCNC(=N)N)C(=O)N[C@H](C(N)=O)[C@@H](C)CC [JAL-1417, Occ-ala-Phe-leu-Leu-Hyp-Nml-Asp-Nmr-Ile-NH2] (HELM PEPTIDE1{[CCCCCCCC(=O)[*:2]].[dA].F.[dL].L.[Hyp].[meL].D.[meR].I.[am]}$$$$V2.0) | < 1 µM
10 | CCCCCCCC(=O)N[C@H](C)C(=O)N[C@@H](Cc1ccccc1)C(=O)NC1(C(=O)N[C@@H](CC(C)C)C(=O)N2C[C@H](N)C[C@H]2C(=O)N(C)[C@@H](CC(C)C)C(=O)N[C@@H](CC(=O)O)C(=O)N2CCC[C@H]2C(=O)N[C@H](C(N)=O)[C@@H](C)CC)CCNCC1 [JAL-1452, Occ-ala-Phe-Apc-Leu-Tap-Nml-Asp-Pro-Ile-NH2] (Octanoyl-[dA]F[Api]L[Pro(4R-NH2)][NMeL]DPI-NH2) | < 1 µM
11 | CCCCCCCC(=O)N[C@H](C)C(=O)N[C@@H](Cc1ccccc1)C(=O)N[C@H](CN(C)C)C(=O)N[C@@H](CC(C)C)C(=O)N1C[C@H](N)C[C@H]1C(=O)N(C)[C@@H](CC(C)C)C(=O)N[C@@H](CC(=O)O)C(=O)N1CCC[C@H]1C(=O)N[C@H](C(N)=O)[C@@H](C)CC [JAL-1453, Occ-ala-Phe-dap(Me2)-Leu-Tap-Nml-Asp-Pro-Ile-NH2] (Octanoyl-[dA]F[dDap(Me2)]L[Pro(4R-NH2)][NMeL]DPI-NH2) | < 1 µM

Second part, the compound after the results:

Row | EC50 | SMILES
12 | < 1 µM | CCCCCCCC(=O)N[C@H](C)C(=O)N[C@@H](Cc1ccccc1)C(=O)N[C@H](CC(C)C)C(=O)N[C@@H](CC(C)C)C(=O)N1C[C@H](O)C[C@H]1C(=O)N(C)[C@@H](CC(C)C)C(=O)N[C@@H](CC(=O)O)C(=O)N[C@@H](CCCNC(=N)N)C(=O)N[C@H](C(N)=O)C(C)(C)C [JAL-1352, Occ-ala-Phe-leu-Leu-Hyp-Nml-Asp-Arg-Tbg-NH2] (HELM PEPTIDE1{[CCCCCCCC(=O)[*:2]].[dA].F.[dL].L.[Hyp].[meL].D.R.[CC(C)(C)[C@H](N[*:1])C(=O)[*:2]].[am]}$$$$V2.0)
13 | < 1 µM | CCCCCCCC(=O)N1CCC[C@H](C(=O)N[C@@H](Cc2ccccc2)C(=O)N[C@H](CC(C)C)C(=O)N[C@@H](CC(C)C)C(=O)N2C[C@H](NCCCN)C[C@H]2C(=O)N(C)[C@@H](CC(C)C)C(=O)N[C@@H](CC(=O)O)C(=O)N[C@@H](CCCNC(=N)N)C(=O)N[C@H](C(N)=O)[C@@H](C)CC)C1 [JAL-1372, Occ-Sni-Phe-leu-Leu-Tap(Ap)-Nml-Asp-Arg-Ile-NH2] (Octanoyl-[X2]F[dL]L[X4][NMeL]DRI-NH2)
14 | < 1 µM | CCCCc1cnc(Nc2ccc(C(=O)N[C@@H](Cc3ccccc3)C(=O)N[C@H](CC(C)C)C(=O)N[C@@H](CC(C)C)C(=O)N3C[C@H](O)C[C@H]3C(=O)N(C)[C@@H](CC(C)C)C(=O)N[C@@H](CC(=O)O)C(=O)N[C@@H](CCCNC(=N)N)C(=O)N[C@H](C(N)=O)[C@@H](C)CC)cc2)s1 [JAL-1380, (AR-201-68)-Phe-leu-Leu-Hyp-Nml-Asp-Arg-Ile-NH2] (HELM PEPTIDE1{[CCCCc1cnc(Nc2ccc(C(=O)[*:2])cc2)s1].F.[dL].L.[Hyp].[meL].D.R.I.[am]}$$$$V2.0)
15 | < 1 µM | CCCCCCCC(=O)N1CCC[C@H](C(=O)N[C@@H](Cc2ccccc2)C(=O)N[C@H](CC(C)C)C(=O)N[C@@H](CC(C)C)C(=O)N2C[C@H](O)C[C@H]2C(=O)N(C)[C@@H](CC(C)C)C(=O)N[C@H](C(=O)N[C@@H](CCCNC(=N)N)C(=O)N[C@H](C(N)=O)[C@@H](C)CC)C(C)C)C1 [JAL-1398, Occ-Sni-Phe-leu-Leu-Hyp-Nml-Val-Arg-Ile-NH2] (HELM PEPTIDE1{[CCCCCCCC(=O)[*:2]].[O=C([C@H]1CCCN([*:1])C1)[*:2]].F.[dL].L.[Hyp].[meL].V.R.I.[am]}$$$$V2.0)
16 | < 1 µM | CCCCCCCCN1CCC[C@H](C(=O)N[C@@H](Cc2ccccc2)C(=O)N[C@H](CN(C)C)C(=O)N[C@@H](CC(C)C)C(=O)N2C[C@H](N)C[C@H]2C(=O)N(C)[C@@H](CC(C)C)C(=O)N[C@H](C(=O)N[C@@H](CCCNC(=N)N)C(=O)N[C@H](C(N)=O)[C@@H](C)CC)C(C)C)C1 [JAL-1405, Oct-Sni-Phe-dap(Me2)-Leu-Tap-Nml-Val-Arg-Ile-NH2] (X1-F[dDap(Me2)]L[Pro(4R-NH2)][NMeL]VRI-NH2)
